The text below walks through data of PubChem BioAssay (NCI).

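All cell lines were grown in 96-well plates and treated with compound for 48 hours. TGI denotes the concentration required for complete inhibition of growth.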

In one test the test system is OVCAR-3 ovarian. Put plainly: DTP human tumour cell line panel, 48 h.
In the case of `Cc1ccc(C2=Nc3cccc4cccc(c34)N2)cc1`, the TGI is > 100 µM.

Regarding `COC(=O)c1ccccc1CC1Cc2ccc3c(c2C1=O)CCC3` (configuration not stated), the concentration for total growth inhibition (TGI) is > 100 µM.

On to `CS(=O)(=O)N1CC(CCl)c2ccc([N+](=O)[O-])cc21` (configuration not stated), for which the TGI is > 100 µM.

`O=c1cc(NNc2ccccc2)[nH]c(=S)[nH]1` yielded a total growth inhibition concentration (TGI) of 31.4 µM. That is a double-digit micromolar value.

Regarding `CC(=O)NC(CS/N=N/c1nc[nH]c1C(N)=O)C(=O)O` (configuration not stated), the total growth inhibition concentration (TGI) was > 100 µM.

Take `CSc1ncc2c(C#N)c3sc4ccccc4n3c(=O)c2n1`: the TGI is > 100 µM.

The next test deals with OVCAR-4 ovarian. Put plainly: DTP human tumour cell line panel, 48 h.
In the case of `Cn1cnc(CCc2ccccc2)n1`, the TGI was > 100 µM.

Regarding `CC1=C(C(=O)O)N2C(=O)[C@@H](NC(=O)C(c3ccc(O)cc3)N3CSC(=S)N(C(C)C)C3)C2SC1` (some centres not stated), the TGI is > 100 µM.

As for `COc1cc(OC)c2c(c1)C(=O)C(CC(C)O)=CC2=O` (configuration not stated), the concentration for total growth inhibition (TGI) was 31.9 µM.

For `O=Nc1c(O)cc(Nc2ccc(Br)cc2)c2ccccc12`, the TGI is > 100 µM.

In the case of `Cc1csc(=S)n1OC(=O)NC1CCCCC1`, the TGI is > 32.5 µM.

On to `C=CC/C=C/Cc1csc(C(C)(C)C(O)C/C=C/C(=C)CCNC(=O)OC)n1` (configuration not stated), for which the TGI is > 100 µM.

Take `COc1ccc(C2=Nc3ccccc3NC(=O)C2)cc1`: the TGI is > 100 µM.

In the case of `O=c1c2nn3c(=O)n(-c4ccccc4)c(=O)c3nn2c(=O)n1-c1ccccc1`, the TGI was > 100 µM.

Take `COC(=O)C1=CC2CCCC1(O)C(C(C)=O)C2` (configuration not stated): the concentration for total growth inhibition (TGI) was > 100 µM.

For `Cc1ccc(C2=Nc3cccc4cccc(c34)N2)cc1`, the total growth inhibition concentration (TGI) was > 100 µM.

Regarding `COC(=O)c1ccccc1CC1Cc2ccc3c(c2C1=O)CCC3` (configuration not stated), the concentration for total growth inhibition (TGI) is > 100 µM.

As to `CS(=O)(=O)N1CC(CCl)c2ccc([N+](=O)[O-])cc21` (configuration not stated), the total growth inhibition concentration (TGI) was > 100 µM.

`O=c1cc(NNc2ccccc2)[nH]c(=S)[nH]1`: the concentration for total growth inhibition (TGI) was > 100 µM.

On to `CC(=O)NC(CS/N=N/c1nc[nH]c1C(N)=O)C(=O)O` (configuration not stated), for which the concentration for total growth inhibition (TGI) is > 100 µM.

Consider `CSc1ncc2c(C#N)c3sc4ccccc4n3c(=O)c2n1`, for which the total growth inhibition concentration (TGI) is > 100 µM.

For the next test, the system named is IGROV1 ovarian. Put plainly: DTP human tumour cell line panel, 48 h.
As to `O=C(COc1ccc2c(=O)cc(-c3ccccc3)oc2c1)N1CCN(c2ccccc2)CC1`, the TGI was > 100 µM.

Take `Cn1cnc(CCc2ccccc2)n1`: the concentration for total growth inhibition (TGI) is > 100 µM.

As for `CC1=C(C(=O)O)N2C(=O)[C@@H](NC(=O)C(c3ccc(O)cc3)N3CSC(=S)N(C(C)C)C3)C2SC1` (some centres not stated), the TGI was > 100 µM.

`COc1cc(OC)c2c(c1)C(=O)C(CC(C)O)=CC2=O` (configuration not stated): the TGI stood at 34.2 µM.

On to `O=Nc1c(O)cc(Nc2ccc(Br)cc2)c2ccccc12`, for which the TGI is > 100 µM.

As to `Cc1csc(=S)n1OC(=O)NC1CCCCC1`, the TGI was > 100 µM.

For the compound `C=CC/C=C/Cc1csc(C(C)(C)C(O)C/C=C/C(=C)CCNC(=O)OC)n1` (configuration not stated), the total growth inhibition concentration (TGI) is > 100 µM.

As for `COc1ccc(C2=Nc3ccccc3NC(=O)C2)cc1`, the concentration for total growth inhibition (TGI) is > 100 µM.

With `O=c1c2nn3c(=O)n(-c4ccccc4)c(=O)c3nn2c(=O)n1-c1ccccc1`, the TGI was > 100 µM.

In turn, `COC(=O)C1=CC2CCCC1(O)C(C(C)=O)C2` (configuration not stated) displayed a TGI of 32.9 µM.

`Cc1ccc(C2=Nc3cccc4cccc(c34)N2)cc1`: the total growth inhibition concentration (TGI) is > 100 µM.

Take `COC(=O)c1ccccc1CC1Cc2ccc3c(c2C1=O)CCC3` (configuration not stated): the concentration for total growth inhibition (TGI) was > 100 µM.

`CS(=O)(=O)N1CC(CCl)c2ccc([N+](=O)[O-])cc21` (configuration not stated): the TGI was > 100 µM.

Consider `O=c1cc(NNc2ccccc2)[nH]c(=S)[nH]1`, for which the TGI is > 100 µM.

Regarding `CC(=O)NC(CS/N=N/c1nc[nH]c1C(N)=O)C(=O)O` (configuration not stated), the TGI is > 100 µM.

Regarding `CSc1ncc2c(C#N)c3sc4ccccc4n3c(=O)c2n1`, the concentration for total growth inhibition (TGI) was > 100 µM.

The test system of a further test is KM12 colon. In words: DTP human tumour cell line panel, 48 h.
In the case of `O=C(COc1ccc2c(=O)cc(-c3ccccc3)oc2c1)N1CCN(c2ccccc2)CC1`, the concentration for total growth inhibition (TGI) was > 100 µM.

As to `Cn1cnc(CCc2ccccc2)n1`, the TGI is > 100 µM.

Turning to `CC1=C(C(=O)O)N2C(=O)[C@@H](NC(=O)C(c3ccc(O)cc3)N3CSC(=S)N(C(C)C)C3)C2SC1` (some centres not stated), the total growth inhibition concentration (TGI) was > 100 µM.

Consider `COc1cc(OC)c2c(c1)C(=O)C(CC(C)O)=CC2=O` (configuration not stated), for which the TGI worked out at 35 µM.

On to `O=Nc1c(O)cc(Nc2ccc(Br)cc2)c2ccccc12`, for which the TGI came to 23.1 µM.

In the case of `Cc1csc(=S)n1OC(=O)NC1CCCCC1`, the TGI was > 100 µM.

As to `C=CC/C=C/Cc1csc(C(C)(C)C(O)C/C=C/C(=C)CCNC(=O)OC)n1` (configuration not stated), the total growth inhibition concentration (TGI) was > 100 µM.

With `COc1ccc(C2=Nc3ccccc3NC(=O)C2)cc1`, the TGI was > 100 µM.

With `O=c1c2nn3c(=O)n(-c4ccccc4)c(=O)c3nn2c(=O)n1-c1ccccc1`, the TGI is > 100 µM.

As to `COC(=O)C1=CC2CCCC1(O)C(C(C)=O)C2` (configuration not stated), the TGI is > 100 µM.

As to `Cc1ccc(C2=Nc3cccc4cccc(c34)N2)cc1`, the TGI was > 100 µM.

Consider `COC(=O)c1ccccc1CC1Cc2ccc3c(c2C1=O)CCC3` (configuration not stated), for which the total growth inhibition concentration (TGI) is > 100 µM.

On to `CS(=O)(=O)N1CC(CCl)c2ccc([N+](=O)[O-])cc21` (configuration not stated), for which the TGI was > 100 µM.

With `O=c1cc(NNc2ccccc2)[nH]c(=S)[nH]1`, the TGI is > 100 µM.

Take `CC(=O)NC(CS/N=N/c1nc[nH]c1C(N)=O)C(=O)O` (configuration not stated): the TGI is > 45.3 µM.

For `CSc1ncc2c(C#N)c3sc4ccccc4n3c(=O)c2n1`, the concentration for total growth inhibition (TGI) was > 100 µM.

The test system of a further test is HT29 colon. In words: DTP human tumour cell line panel, 48 h.
As for `Cn1cnc(CCc2ccccc2)n1`, the concentration for total growth inhibition (TGI) is > 100 µM.

With `CC1=C(C(=O)O)N2C(=O)[C@@H](NC(=O)C(c3ccc(O)cc3)N3CSC(=S)N(C(C)C)C3)C2SC1` (some centres not stated), the TGI was > 100 µM.

`COc1cc(OC)c2c(c1)C(=O)C(CC(C)O)=CC2=O` (configuration not stated): the total growth inhibition concentration (TGI) is 36.8 µM. In other words, the double-digit micromolar range.

On to `O=Nc1c(O)cc(Nc2ccc(Br)cc2)c2ccccc12`, for which the concentration for total growth inhibition (TGI) was determined as 28.1 µM. The TGI values of the last two compounds are within 1.5-fold of each other.

`Cc1csc(=S)n1OC(=O)NC1CCCCC1`: the total growth inhibition concentration (TGI) was > 95.5 µM.

Consider `C=CC/C=C/Cc1csc(C(C)(C)C(O)C/C=C/C(=C)CCNC(=O)OC)n1` (configuration not stated), for which the TGI was > 100 µM.

For the compound `COc1ccc(C2=Nc3ccccc3NC(=O)C2)cc1`, the TGI is > 100 µM.

As for `O=c1c2nn3c(=O)n(-c4ccccc4)c(=O)c3nn2c(=O)n1-c1ccccc1`, the total growth inhibition concentration (TGI) is > 100 µM.

In the case of `COC(=O)C1=CC2CCCC1(O)C(C(C)=O)C2` (configuration not stated), the total growth inhibition concentration (TGI) is > 100 µM.

On to `Cc1ccc(C2=Nc3cccc4cccc(c34)N2)cc1`, for which the TGI is > 100 µM.

With `COC(=O)c1ccccc1CC1Cc2ccc3c(c2C1=O)CCC3` (configuration not stated), the total growth inhibition concentration (TGI) was > 100 µM.

For `CS(=O)(=O)N1CC(CCl)c2ccc([N+](=O)[O-])cc21` (configuration not stated), the TGI is > 100 µM.

For the compound `O=c1cc(NNc2ccccc2)[nH]c(=S)[nH]1`, the TGI is > 100 µM.

`CC(=O)NC(CS/N=N/c1nc[nH]c1C(N)=O)C(=O)O` (configuration not stated): the TGI is > 100 µM.

On to `CSc1ncc2c(C#N)c3sc4ccccc4n3c(=O)c2n1`, for which the concentration for total growth inhibition (TGI) is > 100 µM.

The next test relates to CCRF-CEM leukemia. In words: DTP human tumour cell line panel, 48 h.
`O=C(COc1ccc2c(=O)cc(-c3ccccc3)oc2c1)N1CCN(c2ccccc2)CC1`: the TGI was > 100 µM.

Turning to `Cn1cnc(CCc2ccccc2)n1`, the TGI was > 100 µM.

With `CC1=C(C(=O)O)N2C(=O)[C@@H](NC(=O)C(c3ccc(O)cc3)N3CSC(=S)N(C(C)C)C3)C2SC1` (some centres not stated), the concentration for total growth inhibition (TGI) was > 100 µM.

Take `COc1cc(OC)c2c(c1)C(=O)C(CC(C)O)=CC2=O` (configuration not stated): the total growth inhibition concentration (TGI) was found to be 33.5 µM.
